# Test results from patent publication US7842671B1, “Peptidomimetic inhibitors of STAT activity and uses thereof” (University of South Florida, priority 2003, dated 2010).
# Tests used:
# [1] = system: NIH3T3/v-Src; experiment: Apo-BrdU labeling and flow cytometry for apoptotic cells; assay type: cell-based, mouse; conditions: 48 h
# Procedure: (§1) Cell proliferation, soft-agar growth and Apo-BrdU labeling studies. Proliferating fibroblasts and human tumor cells were counted by phase-contrast microscopy for viable cells (using tyrpan blue exclusion). Colony formation assays in six-well dishes and quantification of colonies by iodonitrotetrazolium violet have been previously described (Turkson, J. et al. (1999)). Treatment of cells with inhibitors was initiated 1 day after seeding cells by adding 75 μl of medium with or without inhibitor, and repeated every two to three days. Apoptosis was measured by Apo-BrdU labeling and following the supplier's (PharMingen; San Diego, Calif.) instructions.
# (§2) Because one of the functions of Stat3 is to protect transformed or tumor cells from apoptosis (Catlett-Falcone, R. et al. (1999b); Epling-Burnette, P. K. et al. (2001); Grandis, J. R. et al. (2000); Bowman, T. et al. (2000b); Bromberg, J. F. et al. (1999)), the ability of peptidomimetics of the invention (and PY*LKTK-MTS for comparison) (SEQ ID NO. 1) to induce apoptosis in Stat3-dependent transformed fibroblasts was evaluated. Viral Src-transformed NIH3T3/v-Src fibroblasts were treated with or without compounds for 48 h. Treated cells were then labeled with Apo-BrdU (PharMingen; San Diego, Calif.) for detection of DNA breaks.
# [2] = system: NIH3T3; experiment: as above; assay type: cell-based, mouse; conditions: NIH3T3, 1 mM, 48 h, flow cytometry
# Procedure: as §1, §2
smiles,measurement,setting,value
CC(C)CC(NC(=O)C(Cc1ccc(OP(=O)(O)O)cc1)NC(=O)c1ccc(C#N)cc1)C(=O)O (stereo not drawn) [ISS 610],percent of apoptotic cells,"[1]; NIH3T3/v-Src, 1 mM, Apo-BrdU, flow cytometry",21.4%
same,incorporated BrdUTP compared to controls (in words),[1]; Src-transformed fibroblasts,dramatic increases in incorporated BrdUTP
same,percent of apoptotic cells,[2],0.3%
